Measurements as given in patent US20240390487A1, “TLR AGONISTS FOR REDUCING ACTIVATION-INDUCED PD-1 EXPRESSION ON T CELLS AND METHODS OF USE” (WISCONSIN ALUMNI RESEARCH FOUNDATION, priority 2016, published 2024).

Assays:
[1] = tested on: OT-1 transgenic splenocytes; test: In vitro stimulation of OT-1 splenocytes with peptide antigen in the presence of TLR agonists, surface markers by flow cytometry; type: cell-based, mice; parameters: key to 4-1BB / PD-1 / LAG3 / CD160 / CD244.2 / BTLA / VISTA: “+” means increase; “−” means decrease; “=” means no change; “=/+” or “=/−” means the change is there but not significant; “=/+” or “=/−” means the change is there but not significant; settings: for 4-1BB / LAG3 / PD-1: OT-1 splenocytes, high affinity antigen plus TLR agonist, versus antigen alone
Experimental: T cell activation was measured by the levels of marker 4-1BB (a/k/a CD137, a member of the TNF receptor superfamily). The level of PD-1 expression was also assessed in these cells (FIG. 1B).
There was no difference in LAG3 expression between the control cells and cells treated with any of the assayed TLR agonists.
OT-1 transgenic splenocytes were treated with high affinity antigen in combination with Pam3CSK4 (TLR1 and 2 agonist), Gardiquimod (TLR7 agonist) or no TLR agonist and the levels of different checkpoint markers or T cell stimulation (measured by 4-1BB, FIG. 5) were assayed. The checkpoint markers BTLA (FIG. 6), VISTA (FIG. 7), CD160 (FIG. 8) and CD244.2 (FIG. 9) were assayed.
TLR stimulation at the time of T-cell activation in vitro affects expression of PD-1. Given that CpG-rich DNA is a TLR9 agonist and Lm is a TLR2 agonist, we questioned whether TLR stimulation with different ligands could similarly affect expression of different T-cell checkpoint inhibitors. […] OT-1 splenocytes were stimulated in vitro with peptides of different affinity for MHC class I (high-affinity SIINFEKL peptide (SEQ ID NO:1, OVA), moderate-affinity SIINTEKL peptide (SEQ ID NO:2, FT), or low-affinity SIINFEKP peptide (SEQ ID NO:7, LP)), alone or in the presence of different TLR ligands (TLR 1/2 (Pam3CSK4), TLR 3 (Poly I:C), TLR 4 (MPLAs), TLR 7 (Gardiquimod), TLR 7/8 (R848), or TLR 9 (ODN1826)). […] Similarly, LAG-3 expression increased by day 3, but was not affected by the presence of different TLR ligands. […] This reduction in PD-1 expression was observed most with the high-affinity SIINFEKL (SEQ ID NO:1) epitope, but also observed following activation with lower affinity epitopes. Given these findings, we evaluated expression of multiple other T-cell checkpoint molecules following T-cell activation in the presence of TLR ligands. […] Cytotoxic T-lymphocyte-associated protein 4 (CTLA-4) expression, however, was increased in the presence of TLR1/2 agonist. Similar results were found activating OT-1 cells with the lower affinity FT (SIINTEKL peptide (SEQ ID NO:2)), LP (SIINFEKP peptide (SEQ ID NO:7), or LY (SIINFEKY, SEQ ID NO:8) epitopes (FIG. 19).
In vitro T-cell stimulation: Spleens were collected from OT-1 mice, processed through a mesh screen, and splenocytes were isolated by centrifugation after red blood cell osmotic lysis with ammonium chloride/[…] lysis buffer (0.15 M NH4Cl, 10 mM KHCO3, 0.1 mM EDTA). Splenocytes were cultured at 2×10^6/mL in RPMI 1640 medium supplemented with L-glutamine, 10% fetal calf serum (FCS), 200 U/mL penicillin/streptomycin, 1% sodium pyruvate, 1% HEPES, 50 μM β-MeOH, and 2 μg/mL of the designated peptide. TLR agonists were all purchased from InvivoGen (San Diego, CA) and added one hour before peptides at the following optimal concentrations based on preliminary studies and previously reported results: 300 ng/ml Pam3CSK4, 10 μg/mL Poly(I:C) HMW, 10 μg/ml MPLAs, 3 μg/ml Gardiquimod, 10 μg/ml R848, 5 μM ODN 1826. At the time points indicated, cells were stained, fixed for 15 min at 4° C. in cytofix (BD Biosciences (BD), San Jose, CA; 554655), and frozen in FCS+10% DMSO. After all time points were collected, cells from all times were thawed, rinsed and resuspended in PBS+3% FCS+1 mM EDTA and analyzed by flow cytometry. Cells were stained for 30 min at 4° C. in a 1:4 dilution of brilliant stain buffer (BD 563794) in PBS+3% FCS+1 mM EDTA. In order to assess co-stimulation, blocking antibodies for CD80 (0.6 μg/mL), CD86 (0.25 μg/mL) or OX40L (0.6 μg/mL) were added 1 hour prior to antigen.

OT-1 CD8+ T cells = test: Adoptive transfer of OT-1 T cells and immunization of C57BL/6 mice, marker expression on splenic OT-1 T cells; type: in vivo
Text: Vaccine type can affect expression of T-cell checkpoint molecules on activated CD8+ T cells: This Example used an ovalbumin vaccination model. OT-1 cells were adoptively transferred to naïve C57BL/6 mice. The day after transfer, mice were immunized once with (a) DNA encoding ovalbumin, (b) Listeria monocytogenes (Lm) encoding ovalbumin, (c) OVA257-264 peptide (SIINFEKL (SEQ ID NO:1)), (d) SIINFEKL peptide (SEQ ID NO:1) with DNA vector, (e) DNA vector alone, (f) Lm encoding control vector with no antigen, or (g) NS (non-specific) peptide. Splenocytes were collected the day after vaccination for expression of cell surface markers on antigen-specific OT-1 cells. […] LAG-3 expression was not reduced in the presence of Lm co-administered with peptide.
TLR stimulation at the time of T-cell activation reduced expression of PD-1 in vivo: To determine whether TLR stimulation at the time of T-cell activation with vaccination elicited a similar reduction in PD-1 in vivo, OT-1 cells were adoptively transferred to naïve C57BL/6 mice as above, and immunized once with OVA or FT peptide (or non-specific peptide) one day later in the presence or absence of a TLR 1/2, TLR7, or TLR9 ligand. Splenocytes were collected from groups up to 14 days after immunization and evaluated for expression of 4-1BB, PD-1 and LAG-3.
Adoptive transfer and immunization of wild type C57BL/6 (B6) mice: OT-1 splenocytes were harvested and CD8+ T cells were isolated as described above. 2×10^6 OT-1 T cells were adoptively transferred into 6- to 10-week old female B6 mice via intraperitoneal injection. The day following transfer, mice were immunized subcutaneously with 100 μg SIINFEKL peptide (SEQ ID NO:1) in PBS without adjuvant, intradermally with 100 μg plasmid encoding full length secreted chicken egg ovalbumin (pCI-neo-sOVA (psOVA), Addgene plasmid #25098, Cambridge, MA), intraperitoneally with 5×10^6 cfu of a Listeria monocytogenes vector encoding ovalbumin (Lm-OVA, gift of JD Sauer), or vehicle or corresponding wild-type Lm or DNA plasmid vector. TLR agonists were co-injected with the vaccine at the following concentrations: 20 μg/mouse Pam3CSK4, 100 μg/mouse Gardiquimod, 50 μg/mouse ODN 1826, or vehicle. Mice were euthanized at the times indicated. Spleens were collected, processed as described above, and T-cell populations analyzed by flow cytometry. Data collected on different days were normalized using rainbow beads (Spherotech, Lake Forest, IL; RFP-30-5A).

[2] = tested on: ovalbumin-expressing E.G7 cells; test: Ovalbumin tumor treatment study: peptide immunization with or without TLR agonist; type: in vivo, mice; settings: FT peptide relative to high-affinity OVA peptide
Experimental: OT-1 T cells were then adoptively transferred and the following day were immunized with SIINFEKL (SEQ ID NO:1, OVA) or FT peptide (SEQ ID NO:2) alone or with TLR1/2 or TLR7 agonist. Other groups were immunized with 100 μg anti-PD-1 antibody delivered the following day. […] This anti-tumor effect was not observed with TLR agonist treatment alone (FIG. 22). […] This was associated with a reduced PD-1 (but not LAG-3) expression on CD8+ TIL (FIG. 17C).
Ovalbumin tumor treatment studies: 10^6 ovalbumin-expressing E.G7 PD-L 1^high cells were injected subcutaneously into 6- to 10-week old female B6 mice. Ten to fifteen days post injection, when tumors were palpable and similarly sized (˜0.2 cm^3), 2×10^6 naïve OT-1 CD8+ T cells were adoptively transferred to each mouse as described above. The following day mice were immunized subcutaneously with 100 μg of an individual peptide (SIINFEKL (SEQ ID NO:1) or variant, LifeTein) in PBS, with or without TLR agonists as described above. In the group receiving PD-1 blocking antibody, 100 μg of antibody (clone G4 (52)) was injected intraperitoneally on the day following vaccination. Tumor volume was measured over time using calipers and calculated in cubic centimeters according to the following formula: (π/6)*(long axis)*(short axis)^2. Tumors obtained at necropsy were digested in media containing 1 mg/mL collagenase and 20 μg/mL DNAse I (Sigma, St. Louis, MO) for 1-2 hours at 37° C. and passed through a 100-μm screen to obtain a single-cell suspension. Tumor cells and tumor-infiltrating lymphocytes (TILs) were stained and analyzed by flow cytometry using the following panel: CD3-FITC (BD 555274), CD4-BUV395 (BD 563790), CD8-BUV805 (BD 564920), LAG-3-BV711 (BD 563179), PD1-PECF594 (BD 562523), PDL1-PECy7 (BD 558017), 41BB-PerCPeF710) (eBioscience 46-1371-82), CD45-BV510 (BD 563891) and Live/Dead Ghost dye 780 (Tonbo, San Diego, CA 13-0865-T100) or corresponding fluorescently labeled IgG controls.

`CCOCc1nc2c(N)nc3ccccc3c2n1CC(C)(C)O` [R848, Resiquimod] was tested, and the 4-1BB [1] was “=”, the LAG3 [1] was “=” and the PD-1 [1] was “−”.

ODN1826 was tested, and the 4-1BB [1] was “=”, the LAG3 [1] was “=/−” and the PD-1 [1] was “−”. For the same compound, the “PD-1 expression on activated T cells” value ([1]; in words, SIINFEKL plus TLR agonist versus antigen alone, up to 4 days) was “significantly reduced” and the “PD-1 expression on OT-1 CD8+ T cells in vivo” value (OT-1 CD8+ T cells; OVA or FT peptide immunization with TLR ligand versus peptide alone, splenocytes up to 14 days, early after T-cell activation) was “significantly reduced”.

SIINFEKL [SIINFEKL peptide] was tested, and the “T-cell activation as measured by 4-1BB expression, by peptide affinity” value ([1]; OVA versus FT and LP peptides) was “greatest T-cell activation”, the “LAG-3 expression by vaccine type” value (OT-1 CD8+ T cells; one immunization, splenocytes after vaccination, Lm co-administered with peptide) was “significantly increased” and the “4-1BB expression by vaccine type” value (OT-1 CD8+ T cells; one immunization, splenocytes after vaccination, Lm or DNA co-administered at the site of peptide immunization) was “strongest activation”. For the same compound, the “PD-1 expression by vaccine type” value (OT-1 CD8+ T cells; one immunization, splenocytes after vaccination, Lm or DNA co-administered with peptide versus peptide) was “significantly increased”.

In the case of SIINTEKL [FT peptide], the “anti-tumor response of peptide immunization alone” value [2] is reported as “greater anti-tumor response”.
